Assay in all cases: Minimum inhibitory concentration
Holding throughout (assay type): cell-based

The subject of assay [1] is Lactobacillus casei ATCC 334. To be noted: Lacticaseibacillus casei. From the text: (§1) That is, the amount in parts-per-million (ppm) required to inhibit the growth of common bacterial pathogens.
In assay [2] the test system is Actinomyces viscosus ATCC 43137.
Description: as §1

In assay [3] the test system is Streptococcus oralis ATCC 35037.
Description: as §1

Where [4] appears, read: ATCC334, Lactobacillus casei ATCC 334, solvent ethanol or DMSO per sample, read-out: minimum inhibitory concentration.
Where [5] appears, read: ATCC43137, Actinomyces viscosus ATCC 43137, solvent ethanol or DMSO per sample, read-out: minimum inhibitory concentration.
Setting [6] is: ATCC35037, Streptococcus oralis ATCC 35037, solvent ethanol or DMSO per sample, read-out: minimum inhibitory concentration.

From patent US10583074B2, “Oral care compositions” (priority 2017, dated 2020) come the findings set out here.

SMILES strings stand for the structures. ≈ marks a conversion by molar mass, not a printed value. Like-named read-outs stand apart in the source and are kept apart here.

Turning to `CC1(C)CC[C@]2(C(=O)O)CC[C@]3(C)C(=CC[C@@H]4[C@@]5(C)CC[C@H](O)C(C)(C)[C@@H]5CC[C@]43C)[C@@H]2C1` [Oleanic Acid, 3β-hydroxy-olea-12-en-28-oic], the MIC in assay [1] (setting [4]) turned out to be 7.8 µg/mL (≈ 17.1 µM); in assay [2] (setting [5]), 15.6 µg/mL (≈ 34.2 µM); in assay [3] (setting [6]), 7.8 µg/mL (≈ 17.1 µM).
As to `C=CCc1ccc(O)c(OC)c1` [Eugenol, 4-allyl-2-methoxyphenol], the MIC in assay [1] (setting [4]), in assay [2] (setting [5]) and in assay [3] (setting [6]) was 250 µg/mL (≈ 1520 µM) throughout.
`Oc1cc(Cl)ccc1Oc1ccc(Cl)cc1Cl` [Triclosan]: the MIC in assay [1] (ATCC334, read-out: minimum inhibitory concentration) was determined as 7.8 µg/mL (≈ 26.9 µM); in assay [2] (Actinomyces viscosus, ATCC43137, read-out: minimum inhibitory concentration), 3.9 µg/mL (≈ 13.5 µM); in assay [3] (Streptococcus oralis, ATCC35037, read-out: minimum inhibitory concentration), 7.8 µg/mL (≈ 26.9 µM).
